From PubChem BioAssay (NCI)
Values joined by “and” are separate entries in the source; they are usually repeats but may differ in a detail not shown here. Identical values can stand only once.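 96-well plates; 48 h exposure; 5 concentrations. Endpoints by linear interpolation between flanking doses. Not reached: highest tested concentration assigned. Abbreviation: GI50, concentration required for 50% inhibition of growth. At the TGI there is no net growth.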

Assays:
Test in all cases: growth of human tumour cells (NCI), 48 h
[1] = test system: DU-145 prostate
[2] = test system: CCRF-CEM leukemia
[3] = test system: MOLT-4 leukemia
[4] = test system: M14 melanoma
[5] = test system: HS 578T breast
[6] = test system: NCI-H23 lung
[7] = test system: UACC-257 melanoma
[8] = test system: PC-3 prostate
[9] = test system: OVCAR-3 ovarian
[10] = test system: HOP-92 NSCLC

Row | Structure (SMILES) | TGI [1] | TGI [2] | TGI [3] | TGI [4] | TGI [5] | TGI [6] | TGI [7] | TGI [8] | TGI [9] | TGI [10] | GI50 [1] | GI50 [4] | GI50 [5] | GI50 [6] | GI50 [9] | GI50 [10] | GI50 [2] | GI50 [8]
1 | CC1(C)CC(O)C(C)(C)[C@@H](O)C1 (some centres not stated) | > 100 µM | > 100 µM | > 100 µM | > 100 µM | > 100 µM | > 100 µM | > 100 µM | > 100 µM |  |  |  |  |  |  |  |  |  | 
2 | COC(=O)C1(Cc2ccc3c(c2)CCC3)Cc2ccccc2C1O (configuration not stated) | > 100 µM | 47.5 µM | 35.5 µM | 34.9 µM | 48.1 µM | 45 µM | 31.5 µM | 29.2 µM | 36.8 µM |  |  |  |  |  |  |  |  | 
3 | C[N+](C)(C)c1ccc(C(N)C(=O)O)cc1 (configuration not stated) | > 100 µM | > 100 µM |  | > 100 µM | > 100 µM | > 100 µM | > 100 µM | > 100 µM | > 100 µM | > 100 µM |  |  |  |  |  |  |  | 
4 | Cc1cc(C)nc(SC2=C(Nc3ccc(C)c(Cl)c3)C(=O)N(Cc3ccccc3)C2=O)n1 | > 160 µM |  |  | > 160 µM | > 160 µM | > 160 µM |  |  | > 160 µM | > 160 µM | > 160 µM | > 160 µM | > 160 µM | > 160 µM | > 160 µM | > 160 µM |  | 
5 | O=S(Nc1ccccc1)c1ccc(N2CCOCC2)cc1 (configuration not stated) | > 100 µM | > 100 µM | > 100 µM | > 100 µM | > 100 µM | > 100 µM | > 100 µM |  | > 100 µM |  |  |  |  |  |  |  |  | 
6 | CCCCC(=O)c1c(O)nc2sccn2c1=O | > 10 µM | > 10 µM | > 10 µM | > 10 µM | > 10 µM | > 10 µM |  | > 10 µM | > 10 µM |  |  |  |  |  |  |  |  | 
7 | Cc1cc(S(=O)(=O)N/C(=C(\C#N)C(=O)c2ccc(Cl)cc2)[n+]2ccc(N(C)C)cc2)c([S-])cc1Cl | > 100 µM | > 100 µM | > 100 µM | > 100 µM |  |  |  | > 100 µM | > 100 µM |  |  |  |  |  |  |  |  | 
8 | NC(=O)NNc1nc(-c2ccccc2)cs1 | > 100 µM | > 100 µM | > 100 µM | > 100 µM | > 100 µM |  | > 100 µM | > 100 µM | > 100 µM |  |  |  |  |  |  |  |  | 
9 | COc1ccc(N2C(=O)CC(=O)N(C(=O)COc3ccc(OCC(=O)N4C(=O)CC(=O)N(c5ccc(OC)cc5)C4=S)cc3)C2=S)cc1 | > 100 µM |  | > 100 µM | > 100 µM |  | > 100 µM | > 100 µM | > 100 µM |  | > 100 µM |  |  |  |  |  |  |  | 
10 | CC(=O)Oc1cc2c(cc1OC(C)=O)OCC(c1ccc(C)cc1)C2 (configuration not stated) |  | 26.8 µM | 54.6 µM |  |  | 32.1 µM | 40.3 µM |  | 41 µM | 29 µM |  |  |  |  |  |  |  | 
11 | CC(=O)OCC1OC(SC2=N/C(=C\c3ccc(Br)s3)C(=O)N2CN2CCOCC2)C(OC(C)=O)C(OC(C)=O)C1OC(C)=O (configuration not stated) | 30.6 µM |  | 52.8 µM |  | > 100 µM | 27.2 µM | 32.2 µM | 54.5 µM |  |  |  |  |  |  |  |  |  | 
12 | C[n+]1cccc2c(=O)c3ccccc3oc21 | > 100 µM | > 100 µM |  | > 100 µM | > 100 µM | > 100 µM |  | > 100 µM | > 100 µM | > 100 µM |  |  |  |  |  |  |  | 
13 | O=C(NCCCCCCCCCCCCNC(=O)Nc1cccc2ccccc12)Nc1cccc2ccccc12 | 70.9 µM | 33.4 µM | 42.2 µM | 43.6 µM | 52.4 µM | 31.5 µM |  | 29.7 µM | 30.3 µM | 25.9 µM |  |  |  |  |  |  |  | 
14 | CCOP(=O)(/C=C\n1cc(C)c(=O)[nH]c1=O)OCC | > 100 µM | > 100 µM | > 100 µM | > 100 µM |  | > 100 µM | > 100 µM | > 100 µM | > 100 µM |  |  |  |  |  |  |  |  | 
15 | CCOC(=O)c1nc2ccc(C(F)(F)F)cc2nc1Oc1cc(OC)c(OC)c(OC)c1 | > 100 µM |  | > 100 µM | > 100 µM | 73.5 µM |  | > 100 µM | > 100 µM | > 100 µM | > 100 µM |  |  |  |  |  |  |  | 
16 | CCOc1ccc(N/C(=C(/C(Cl)=C(/Cl)N(CC)CC)[N+](=O)[O-])n2nnc3ccccc32)cc1 |  | > 100 µM | > 100 µM | 79 µM | > 100 µM | 35 µM | > 100 µM | 41.9 µM | 24.3 µM |  |  |  |  |  |  |  |  | 
17 | O=C1CCCCC/C1=C\c1ccc([N+](=O)[O-])cc1 | > 100 µM | 70.5 µM | > 100 µM | > 100 µM |  |  | 54.9 µM | > 100 µM | 73.2 µM |  |  |  |  |  |  |  |  | 
18 | COC(=O)c1cc(=O)[nH]c(=O)[nH]1 | > 100 µM |  | > 100 µM | > 100 µM |  | > 100 µM | > 100 µM | > 100 µM | > 100 µM | > 100 µM |  |  |  |  |  |  |  | 
19 | O=c1[nH]nc(-c2ccccc2)n1/N=C\c1ccccc1 | > 100 µM | > 100 µM | > 100 µM |  | > 100 µM | > 100 µM | > 100 µM | > 100 µM | > 100 µM | > 100 µM |  |  |  |  |  |  |  | 
20 | [Cl][Sn]([c]1ccccc1)([c]1ccccc1)[c]1ccccc1 | 0.428 µM | 0.156 µM |  |  | 23 µM | 0.285 µM and 0.0456 µM |  | 1.02 µM | 0.362 µM and 0.0422 µM and 0.0566 µM |  | 0.21 µM |  | 0.378 µM | 0.0815 µM and 0.0133 µM |  | 0.0939 µM and 0.122 µM and 0.0139 µM | 0.029 µM | 0.327 µM
21 | C=C[C@@H](C)[C@H](NS(=O)(=O)c1ccc(C)cc1)C(=O)OCC | > 100 µM | > 100 µM | > 100 µM | > 100 µM | 56.4 µM | > 100 µM | 71.5 µM | > 100 µM | 43.1 µM |  |  |  |  |  |  |  |  | 
22 | C/C=C/c1cc(=O)c([C@@H]2OC(=O)c3cc(OC)cc(OC)c32)co1 |  | > 100 µM | > 100 µM | > 100 µM |  | > 100 µM | > 100 µM |  | 64.3 µM | > 100 µM |  |  |  |  |  |  |  | 
23 | NC(=O)c1cccc([N+](=O)[O-])c1 |  | > 100 µM | > 100 µM | > 100 µM |  | > 100 µM | > 100 µM |  | > 100 µM |  |  |  |  |  |  |  |  | 
24 | CCN(CC)N1C(=O)[N+](CC)(CC)N=C1[O-] | > 100 µM | > 100 µM | > 100 µM | > 100 µM | > 100 µM | > 100 µM |  | > 100 µM | > 100 µM | > 100 µM |  |  |  |  |  |  |  | 
25 | CN(C)C(=O)OC1C(=O)N(C)c2ccc(Cl)cc2C2(c3ccccc3)N1C2(Cl)Cl (configuration not stated) |  | > 100 µM | > 100 µM | > 100 µM |  | > 100 µM | > 100 µM |  | > 100 µM | > 100 µM |  |  |  |  |  |  |  | 
